For series [1], the species on record is Mus musculus. Kind of series: Antialzheimer activity against STZ induced C57BL/6 mouse assessed as decrease in p-RIPK3/RIPK3 ratio in hippocampus. It is filed as functional, organism-based.
Series [2] deals with T1, Mixed lineage kinase domain-like protein (Homo sapiens) (UniProt Q8NB16).
T1 sequence (whole entry): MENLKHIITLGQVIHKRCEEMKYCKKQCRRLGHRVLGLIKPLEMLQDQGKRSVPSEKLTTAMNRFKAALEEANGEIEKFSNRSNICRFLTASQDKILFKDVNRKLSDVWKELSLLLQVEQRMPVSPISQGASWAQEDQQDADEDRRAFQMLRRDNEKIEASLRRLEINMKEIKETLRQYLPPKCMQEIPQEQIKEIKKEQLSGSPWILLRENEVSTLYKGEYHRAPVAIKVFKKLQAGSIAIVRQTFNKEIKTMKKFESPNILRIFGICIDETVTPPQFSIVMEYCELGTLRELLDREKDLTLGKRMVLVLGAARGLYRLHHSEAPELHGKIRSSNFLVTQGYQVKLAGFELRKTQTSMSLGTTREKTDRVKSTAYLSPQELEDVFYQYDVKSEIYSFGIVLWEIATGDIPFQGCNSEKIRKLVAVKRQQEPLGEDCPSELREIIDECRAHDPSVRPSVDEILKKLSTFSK
The series is described as follows: Inhibition of MLKL phosphorylation in TSZ induced human HT-29 cells at 1 uM pretreated with compound followed by TSZ stimulation upto 6 hrs by immunoblotting analysis. The class given is cell-based.

Series [3] is filed under the species Mus musculus. The series is described as follows: Antialzheimer activity against STZ induced C57BL/6 mouse model of cognitive dysfunction assessed as decrease of TNF-alpha expression in hippocampus. It is filed as functional, organism-based.
Series [4] concerns the target T2, Receptor-interacting serine/threonine-protein kinase 1 (Homo sapiens) (UniProt Q13546).
T2 sequence (whole entry): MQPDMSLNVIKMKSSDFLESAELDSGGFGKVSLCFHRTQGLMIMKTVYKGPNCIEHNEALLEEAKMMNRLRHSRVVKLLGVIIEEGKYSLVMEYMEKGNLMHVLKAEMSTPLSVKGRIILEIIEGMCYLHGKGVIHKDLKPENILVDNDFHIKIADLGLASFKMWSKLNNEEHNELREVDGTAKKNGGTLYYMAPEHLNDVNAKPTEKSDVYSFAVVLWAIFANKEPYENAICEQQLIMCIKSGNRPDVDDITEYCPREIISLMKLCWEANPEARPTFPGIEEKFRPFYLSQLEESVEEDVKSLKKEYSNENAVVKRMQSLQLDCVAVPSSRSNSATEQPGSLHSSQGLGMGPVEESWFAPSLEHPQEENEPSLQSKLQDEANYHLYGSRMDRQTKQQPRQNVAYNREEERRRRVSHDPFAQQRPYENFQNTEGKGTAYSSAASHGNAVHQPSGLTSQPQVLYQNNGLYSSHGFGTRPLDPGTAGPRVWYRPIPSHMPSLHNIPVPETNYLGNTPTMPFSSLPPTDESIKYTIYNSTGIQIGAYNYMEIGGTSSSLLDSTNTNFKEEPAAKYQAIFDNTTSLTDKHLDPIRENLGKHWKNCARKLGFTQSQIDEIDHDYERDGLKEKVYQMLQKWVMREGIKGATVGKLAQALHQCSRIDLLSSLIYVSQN
The series is described as follows: Inhibition of RIPK1 in human HT-29 cells assessed as reduction in TSZ induced necroptosis at 25 to 50 nM pretreated with compound followed by TSZ stimulation for 8 hrs by celltiter-glo luminescent cell viability assay relative to control. It is filed as cell-based. Conditions: dose 25-50 nM. In general terms: In ATP-based viability assays light output follows the ATP content of the culture.

The test system of series [5] is Mus musculus. Kind of series: Anti-necroptosis activity against TNFalpha-induced C57BL/6 mouse model of systemic inflammatory response syndrome assessed as reduction in IL-6 level administered IG pretreated for 1 hr followed by TNFalpha stimulation for 2 hrs. The class given is functional, organism-based. Conditions: dose 10-40 mg/kg, time 3.0 hrs, DDE = dose-dependent effect.

Series [6] has as its system Mus musculus. Kind of series: Antialzheimer activity against STZ induced C57BL/6 mouse model of cognitive dysfunction assessed as increase in number of active avoidance time at 1 mg/kg, IG administered once daily and measured for 4 days by active avoidance test. The class given is functional, organism-based. Conditions: time 4.0 day.
A short description of series [7]: Cytotoxicity against mouse primary neurons assessed as reduction in cell viability at 0.256 to […] by celltiter-glo luminescent cell viability assay. The class given is toxicity, cell-based. Particulars: neuron, dose 0.256-[…].
The test system of series [8] is Mus musculus. Kind of series: Antialzheimer activity against STZ induced C57BL/6 mouse model of cognitive dysfunction assessed as prolonged exploration time for new objects at 1 mg/kg, IG administered once daily for 7 days by novel object recognition test. The class given is functional, organism-based. Particulars: time 7.0 day.
Series [9] relates to Mus musculus. The series is described as follows: Anti-necroptosis activity against TNFalpha-induced C57BL/6 mouse model of systemic inflammatory response syndrome assessed as reduction in IL-1 beta level administered IG pretreated for 1 hr followed by TNFalpha stimulation for 2 hrs. It is filed as functional, organism-based. Particulars: dose 10-40 mg/kg, time 3.0 hrs, DDE = dose-dependent effect.

The species named for series [10] is Mus musculus. Kind of series: Antialzheimer activity against STZ induced C57BL/6 mouse model of cognitive dysfunction assessed as restoration of hippocampal morphology by Nissl staining based analysis. It is filed as functional, organism-based.
Series [11] in a line: Cytotoxicity against human HT-29 cells assessed as reduction in cell viability by celltiter-glo luminescent cell viability assay. The class given is toxicity, cell-based.
Another series relates to HT-29. Kind of series: Anti-necroptotic activity in TSZ induced human HT-29 cells assessed as increase in cell viability pretreated with compound followed by TSZ stimulation and measured after 16 hrs by celltiter-glo luminescent cell viability assay. It is filed as functional, cell-based.
Series [12] can be described thus: Toxicity in C57BL/6 mouse assessed as effect on spleen by H and E staining based analysis. It is filed as tissue-based. Particulars: in vivo.
The species named for series [13] is Mus musculus. The series is described as follows: Antialzheimer activity against STZ induced C57BL/6 mouse model of cognitive dysfunction assessed as restoration of hippocampal cell number by Nissl staining based analysis. It is filed as functional, organism-based.
The species entered for series [14] is Mus musculus. The series is described as follows: Antialzheimer activity against STZ induced C57BL/6 mouse model of cognitive dysfunction assessed as decrease in p-Tau level in frontal cortex by Western blot analysis. The class given is functional, organism-based. A general note: A western blot detects proteins with antibodies after separation by electrophoresis.

For series [15], the species on record is Mus musculus. Kind of series: Antialzheimer activity against STZ induced C57BL/6 mouse model of cognitive dysfunction assessed as downregulation of IL-1 beta in frontal cortex. The class given is functional, organism-based.
Series [16] relates to Mus musculus. The series is described as follows: Antialzheimer activity against STZ induced C57BL/6 mouse model of cognitive dysfunction assessed as increase in preference index at 1 mg/kg, IG administered once daily for 7 days by novel object recognition test. The class given is functional, organism-based. Particulars: time 7.0 day.
For series [17], the target named is T2, Receptor-interacting serine/threonine-protein kinase 1 (Homo sapiens). Kind of series: Inhibition of RIPK1 phosphorylation in TSZ induced human HT-29 cells at 1 uM pretreated with compound followed by TSZ stimulation upto 6 hrs by immunoblotting analysis relative to control. The class given is cell-based.
The subject of series [18] is Mus musculus. Kind of series: Antialzheimer activity against STZ induced C57BL/6 mouse model of cognitive dysfunction assessed as increase in quadrant time at 1 mg/kg, IG administered once daily for 7 days. The class given is functional, organism-based. Conditions: time 7.0 day.
Series [19] is filed under the species Mus musculus. Kind of series: Antialzheimer activity against STZ induced C57BL/6 mouse assessed as decrease in p-RIPK1/RIPK1 ratio in frontal cortex. The class given is functional, organism-based.

Structures are written as SMILES. Activity calls are given as the source filed them. No cut-off for these calls is given here. Where only a bound is given, the exact number is not on record here.

As a reminder, the inhibition is the percentage by which the read-out fell short of the control. Usually CC50 stands for the concentration that lowers cell viability or growth by half. As usually defined, the EC50 is the concentration at which the effect is half-maximal.

Turning to `O=C1CC(C(=O)Nc2nc3cc(Oc4ccc(F)c(NC(=O)Cc5cccc(OC(F)(F)F)c5)c4)c(F)cc3s2)C1`, the result in the series filed under Mus musculus [1], in the series listed under Mus musculus [3], in the series with Mus musculus [6], in the series on Mus musculus [8], in the series listed under Mus musculus [10] and in the series listed under Mus musculus [13] was Active. The result in the series filed under Mus musculus [14], in the series listed under Mus musculus [15], in the series with Mus musculus [16], with Mus musculus [18] and in the series listed under Mus musculus [19] was Active. The inhibition entry in series [2] was “Active”. The inhibition in [4] and in series [17] was 100% throughout. The Activity entry in the series with Mus musculus [5] is “Dde”; in series [7], “Non-Toxic”; with Mus musculus [9] it was “Dde”; in series [12], “Non-Toxic”. Moreover, in series [11], the 50% cytotoxic concentration (CC50) is greater than 50000 nM. For the same compound, the EC50 with HT-29 was 2 nM.

The record behind these values is ChEMBL document CHEMBL5096222, “Discovery of a Trifluoromethoxy Cyclopentanone Benzothiazole Receptor-Interacting Protein Kinase 1 Inhibitor as the Treatment for Alzheimer's Disease” (J Med Chem, 2022).
